Tests used:
Assay type in all cases: in vivo
Alopecurus japonicus = test: Weeding effect in post-emergence stage; details: for Weeding effect in post-emergence stage, Alopecurus japonicus: level of fresh weight growth control rate; for Weeding effect in post-emergence stage, Alopecurus japonicus (level): fresh weight control rate level
Outline: (§1)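 Pot-grown greenhouse plants sprayed at 2–3 leaf stage, 2 weeks after sowing, with compound in acetone/Tween 80 plus methyl oleate emulsifiable concentrate (1.5 liter/ha) at 500–7.5 g/ha. Growth control rated 3 weeks after treatment; mean of three replicates.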

Digitaria sanguinalis = test: Weeding effect in post-emergence stage; details: for Weeding effect in post-emergence stage, Digitaria sanguinalis: level of fresh weight growth control rate; for Weeding effect in post-emergence stage, Digitaria sanguinalis (level): fresh weight control rate level
Outline: as §1

Setaria viridis [1] = test: Weeding effect in post-emergence stage; details: for Weeding effect in post-emergence stage, Setaria viridis: level of fresh weight growth control rate; for Weeding effect in post-emergence stage, Setaria viridis (level): fresh weight control rate level
Outline: as §1

Abutilon theophrasti [2] = test: Weeding effect in post-emergence stage; details: for Weeding effect in post-emergence stage, Abutilon theophrasti: level of fresh weight growth control rate; for Weeding effect in post-emergence stage, Abutilon theophrasti (level): fresh weight control rate level
Outline: as §1

Eleusine indica = test: Weeding effect in post-emergence stage; details: for Weeding effect in post-emergence stage, Eleusine indica: level of fresh weight growth control rate; for Weeding effect in post-emergence stage, Eleusine indica (level): fresh weight control rate level
Outline: as §1

Capsella bursa-pastoris = test: Weeding effect in pre-emergence stage; details: 30 g/ha, 4 weeks
Procedure: (§2) The activity level criteria for plant damage (i.e., growth control rate) are as follows:
(§3) The aforementioned seeds of monocotyledonous and dicotyledonous weeds and main crops were put into a plastic pot loaded with soil and covered with 0.5-2 cm soil. The test compounds of the present invention was dissolved with acetone, then added with tween 80, diluted by a certain amount of water to reach a certain concentration, and sprayed immediately after sowing. The obtained seeds were incubated for 4 weeks in the greenhouse after spraying and the test results were observed. It was observed that the herbicide mostly had excellent effect at the application rate of 500, 250, 125, 60, 30, 15, 7.5 g/ha, especially to weeds such as Echinochloa crusgalli. Digitaria sanguinalis and Abutilon theophrasti, etc. And many compounds had good selectivity for corn, cotton, wheat, rice, soybean, and peanut etc. In addition, evaluate the weed control effect with the above activity standard level.

Veronica didyma Tenore = test: Weeding effect in pre-emergence stage; details: 30 g/ha, 4 weeks
Procedure: as §2, §3

Setaria viridis [3] = test: Weeding effect in pre-emergence stage; details: 30 g/ha, 4 weeks
Procedure: as §2, §3

Abutilon theophrasti [4] = test: Weeding effect in pre-emergence stage; details: 30 g/ha, 4 weeks
Procedure: as §2, §3

Amaranthus retroflexus = test: Weeding effect in pre-emergence stage; details: 30 g/ha, 4 weeks
Procedure: as §2, §3

Descurainia sophia = test: Weeding effect in pre-emergence stage; details: 30 g/ha, 4 weeks
Procedure: as §2, §3

Peanut = test: Pre-emergence stage, crop selectivity; details: 30 g/ha, 4 weeks
Procedure: as §2, §3

corn = test: Pre-emergence stage, crop selectivity; details: 30 g/ha, 4 weeks
Procedure: as §2, §3

Soybeans = test: Pre-emergence stage, crop selectivity; details: 30 g/ha, 4 weeks
Procedure: as §2, §3

cotton = test: Pre-emergence stage, crop selectivity; details: 30 g/ha, 4 weeks
Procedure: as §2, §3

Echinochloa crusgalli = test: Weeding effect in post-emergence stage; details: for Weeding effect in post-emergence stage, Echinochloa crusgalli: level of fresh weight growth control rate; for Weeding effect in post-emergence stage, Echinochloa crusgalli (level): fresh weight control rate level
Outline: as §1

CCOC(=O)[C@@H](C)O/N=C/c1cc(-n2c(=O)n(C)c(=S)n(C)c2=O)c(F)cc1Cl [2(R)]
Weeding effect in post-emergence stage, Alopecurus japonicus (Alopecurus japonicus; Dose 15 g/ha): 5 (Level 5: growth control rate is above 85%)
Weeding effect in post-emergence stage, Digitaria sanguinalis (Digitaria sanguinalis; Dose 15 g/ha): 5 (Level 5: growth control rate is above 85%)
Weeding effect in post-emergence stage, Setaria viridis (Setaria viridis [1]; Dose 15 g/ha): 5 (Level 5: growth control rate is above 85%)
Weeding effect in post-emergence stage, Abutilon theophrasti (Abutilon theophrasti [2]; Dose 15 g/ha): 5 (Level 5: growth control rate is above 85%)
Weeding effect in post-emergence stage, Eleusine indica (Eleusine indica; Dose 15 g/ha): 5 (Level 5: growth control rate is above 85%)
activity level (growth control rate) Capsella bursa-pastoris (Capsella bursa-pastoris): 5 (Level 5: growth control rate is above 85%)
activity level (growth control rate) Veronica didyma Tenore (Veronica didyma Tenore): 5 (Level 5: growth control rate is above 85%)
activity level (growth control rate) Setaria viridis (Setaria viridis [3]): 5 (Level 5: growth control rate is above 85%)
activity level (growth control rate) Abutilon theophrasti (Abutilon theophrasti [4]): 5 (Level 5: growth control rate is above 85%)
activity level (growth control rate) Amaranthus retroflexus (Amaranthus retroflexus): 5 (Level 5: growth control rate is above 85%)
activity level (growth control rate) Descurainia sophia (Descurainia sophia): 5 (Level 5: growth control rate is above 85%)
plant damage level Peanut (Peanut): 0 (Level 0: growth control rate is less than 5%)
plant damage level Corn (corn): 0 (Level 0: growth control rate is less than 5%)
plant damage level Soybeans (Soybeans): 0 (Level 0: growth control rate is less than 5%)
plant damage level Cotton (cotton): 0 (Level 0: growth control rate is less than 5%)
Weeding effect in post-emergence stage, Echinochloa crusgalli (Echinochloa crusgalli; Dose 15 g/ha): 5 (Level 5: growth control rate is above 85%)

CCCOC(=O)[C@@H](C)O/N=C/c1cc(-n2c(=O)cc(C(F)(F)F)n(C)c2=O)c(F)cc1Cl [198(R)]
Weeding effect in post-emergence stage, Alopecurus japonicus (Alopecurus japonicus; Dose 15 g/ha): 5 (Level 5: growth control rate is above 85%)
Weeding effect in post-emergence stage, Digitaria sanguinalis (Digitaria sanguinalis; Dose 15 g/ha): 5 (Level 5: growth control rate is above 85%)
Weeding effect in post-emergence stage, Setaria viridis (Setaria viridis [1]; Dose 15 g/ha): 5 (Level 5: growth control rate is above 85%)
Weeding effect in post-emergence stage, Abutilon theophrasti (Abutilon theophrasti [2]; Dose 15 g/ha): 5 (Level 5: growth control rate is above 85%)
Weeding effect in post-emergence stage, Eleusine indica (Eleusine indica; Dose 15 g/ha): 5 (Level 5: growth control rate is above 85%)
activity level (growth control rate) Capsella bursa-pastoris (Capsella bursa-pastoris): 5 (Level 5: growth control rate is above 85%)
activity level (growth control rate) Veronica didyma Tenore (Veronica didyma Tenore): 5 (Level 5: growth control rate is above 85%)
activity level (growth control rate) Setaria viridis (Setaria viridis [3]): 5 (Level 5: growth control rate is above 85%)
activity level (growth control rate) Abutilon theophrasti (Abutilon theophrasti [4]): 5 (Level 5: growth control rate is above 85%)
activity level (growth control rate) Amaranthus retroflexus (Amaranthus retroflexus): 5 (Level 5: growth control rate is above 85%)
activity level (growth control rate) Descurainia sophia (Descurainia sophia): 5 (Level 5: growth control rate is above 85%)
plant damage level Peanut (Peanut): 0 (Level 0: growth control rate is less than 5%)
plant damage level Corn (corn): 0 (Level 0: growth control rate is less than 5%)
plant damage level Soybeans (Soybeans): 0 (Level 0: growth control rate is less than 5%)
plant damage level Cotton (cotton): 0 (Level 0: growth control rate is less than 5%)
Weeding effect in post-emergence stage, Echinochloa crusgalli (Echinochloa crusgalli; Dose 15 g/ha): 5 (Level 5: growth control rate is above 85%)

COC(=O)C(C)NN=Cc1cc(-n2c(=O)cc(C(F)(F)F)n(C)c2=O)c(F)cc1Cl (centres unmarked) [Compound 919]
Weeding effect in post-emergence stage, Alopecurus japonicus (level) (Alopecurus japonicus; Dose 30 g/ha): 5 (Level 5: growth control rate is above 85%)
Weeding effect in post-emergence stage, Digitaria sanguinalis (level) (Digitaria sanguinalis; Dose 30 g/ha): 5 (Level 5: growth control rate is above 85%)
Weeding effect in post-emergence stage, Setaria viridis (level) (Setaria viridis [1]; Dose 30 g/ha): 5 (Level 5: growth control rate is above 85%)
Weeding effect in post-emergence stage, Abutilon theophrasti (level) (Abutilon theophrasti [2]; Dose 30 g/ha): 5 (Level 5: growth control rate is above 85%)
Weeding effect in post-emergence stage, Eleusine indica (level) (Eleusine indica; Dose 30 g/ha): 5 (Level 5: growth control rate is above 85%)
Weeding effect in post-emergence stage, Echinochloa crusgalli (level) (Echinochloa crusgalli; Dose 30 g/ha): 5 (Level 5: growth control rate is above 85%)

CO/N=C/c1cc(-n2c(=O)n(C)c(=S)n(C)c2=O)c(F)cc1Cl [Control compound A, reference compound]
Weeding effect in post-emergence stage, Alopecurus japonicus (level) (Alopecurus japonicus; Dose 15 g/ha): 0 (Level 0: growth control rate is less than 5%)
Weeding effect in post-emergence stage, Digitaria sanguinalis (level) (Digitaria sanguinalis; Dose 15 g/ha): 1 (Level 1: growth control rate is greater than or equal to 5% and less than 20%)
Weeding effect in post-emergence stage, Setaria viridis (level) (Setaria viridis [1]; Dose 15 g/ha): 1 (Level 1: growth control rate is greater than or equal to 5% and less than 20%)
Weeding effect in post-emergence stage, Abutilon theophrasti (level) (Abutilon theophrasti [2]; Dose 15 g/ha): 3 (Level 3: growth control rate is greater than or equal to 40% and less than 60%)
Weeding effect in post-emergence stage, Eleusine indica (level) (Eleusine indica; Dose 15 g/ha): 1 (Level 1: growth control rate is greater than or equal to 5% and less than 20%)
Weeding effect in post-emergence stage, Echinochloa crusgalli (level) (Echinochloa crusgalli; Dose 15 g/ha): 0 (Level 0: growth control rate is less than 5%)

CCOC(=O)CO/N=C/c1cc(-n2c(=O)cc(C(F)(F)F)[nH]c2=O)ccc1Cl [Control compound B, reference compound]
Weeding effect in post-emergence stage, Alopecurus japonicus (level) (Alopecurus japonicus; Dose 15 g/ha): 1 (Level 1: growth control rate is greater than or equal to 5% and less than 20%)
Weeding effect in post-emergence stage, Digitaria sanguinalis (level) (Digitaria sanguinalis; Dose 15 g/ha): 2 (Level 2: growth control rate is greater than or equal to 20% and less than 40%)
Weeding effect in post-emergence stage, Setaria viridis (level) (Setaria viridis [1]; Dose 15 g/ha): 2 (Level 2: growth control rate is greater than or equal to 20% and less than 40%)
Weeding effect in post-emergence stage, Abutilon theophrasti (level) (Abutilon theophrasti [2]; Dose 15 g/ha): 3 (Level 3: growth control rate is greater than or equal to 40% and less than 60%)
Weeding effect in post-emergence stage, Eleusine indica (level) (Eleusine indica; Dose 15 g/ha): 1 (Level 1: growth control rate is greater than or equal to 5% and less than 20%)
Weeding effect in post-emergence stage, Echinochloa crusgalli (level) (Echinochloa crusgalli; Dose 15 g/ha): 2 (Level 2: growth control rate is greater than or equal to 20% and less than 40%)

CO/N=C/c1cc(-n2c(=O)cc(C(F)(F)F)n(N)c2=O)c(F)cc1Cl [Control compound C, reference compound]
Weeding effect in post-emergence stage, Alopecurus japonicus (level) (Alopecurus japonicus; Dose 15 g/ha): 1 (Level 1: growth control rate is greater than or equal to 5% and less than 20%)
Weeding effect in post-emergence stage, Digitaria sanguinalis (level) (Digitaria sanguinalis; Dose 15 g/ha): 2 (Level 2: growth control rate is greater than or equal to 20% and less than 40%)
Weeding effect in post-emergence stage, Setaria viridis (level) (Setaria viridis [1]; Dose 15 g/ha): 2 (Level 2: growth control rate is greater than or equal to 20% and less than 40%)
Weeding effect in post-emergence stage, Abutilon theophrasti (level) (Abutilon theophrasti [2]; Dose 15 g/ha): 2 (Level 2: growth control rate is greater than or equal to 20% and less than 40%)
Weeding effect in post-emergence stage, Eleusine indica (level) (Eleusine indica; Dose 15 g/ha): 1 (Level 1: growth control rate is greater than or equal to 5% and less than 20%)
Weeding effect in post-emergence stage, Echinochloa crusgalli (level) (Echinochloa crusgalli; Dose 15 g/ha): 2 (Level 2: growth control rate is greater than or equal to 20% and less than 40%)

CCOC(=O)CO/N=C/c1cccc(-n2c(=O)cc(C(F)(F)F)[nH]c2=O)c1 [Control compound F, reference compound]
Weeding effect in post-emergence stage, Alopecurus japonicus (level) (Alopecurus japonicus; Dose 60 g/ha): 0 (Level 0: growth control rate is less than 5%)
Weeding effect in post-emergence stage, Digitaria sanguinalis (level) (Digitaria sanguinalis; Dose 60 g/ha): 1 (Level 1: growth control rate is greater than or equal to 5% and less than 20%)
Weeding effect in post-emergence stage, Setaria viridis (level) (Setaria viridis [1]; Dose 60 g/ha): 1 (Level 1: growth control rate is greater than or equal to 5% and less than 20%)
Weeding effect in post-emergence stage, Abutilon theophrasti (level) (Abutilon theophrasti [2]; Dose 60 g/ha): 2 (Level 2: growth control rate is greater than or equal to 20% and less than 40%)
Weeding effect in post-emergence stage, Eleusine indica (level) (Eleusine indica; Dose 60 g/ha): 1 (Level 1: growth control rate is greater than or equal to 5% and less than 20%)
Weeding effect in post-emergence stage, Echinochloa crusgalli (level) (Echinochloa crusgalli; Dose 60 g/ha): 0 (Level 0: growth control rate is less than 5%)

Reference: patent US20230111310A1, “CARBOXYLIC ACID DERIVATIVE-SUBSTITUTED IMINO ARYL COMPOUND, PREPARATION METHOD THEREFOR, HERBICIDAL COMPOSITION AND USE THEREOF” (Qingdao Kingagroot Chemical Compound Co., Ltd., priority 2020, published 2023)
